Results published in US10350199B2, “3-(1h-pyrrolo[2,3-b]pyridin-2-yl)-1h-indazoles and therapeutic uses thereof” (Samumed, LLC, priority 2015, dated 2019).

Key:
Assay type in all cases: cell-based
[1] = system: Wnt activity (Sp5-Luc reporter, SW480 colon carcinoma cells); test: Wnt activity screening assay, Sp5-Luc reporter gene in SW480 cells; details: Homo sapiens; for EC50: Sp5-Luc reporter, SW480 cells, overnight incubation; for inhibition at 10 µM: SW480, read-out: percent inhibition at 10 μM
In short: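 SW480 cells stably transduced with lentiviral Sp5 promoter (eight TCF/LEF sites)-firefly luciferase, plated at 4,000 cells/well in 1% FBS medium and incubated overnight at 37° C. Luminescence read after BrightGlo addition, normalized to DMSO-only cells; EC50 from four-parameter variable-slope nonlinear regression.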

[2] = system: primary human mesenchymal stem cells (hMSCs); test: Induction of chondrogenesis in human mesenchymal stem cells (nodule area, Rhodamine B/Nile Red); details: hMSC chondrogenesis; for EC50: concentration required to induce 50% levels of chondrogenesis of TGF-β3 positive control, read-out: Conc (nM) of 50% TGF-β3 activity; for Emax: relative to TGF-β3 (10 ng/mL) positive control, read-out: Max. Activity as % TGF-β3 activity
Description: Representative compounds were screened using primary human mesenchymal stem cells (hMSCs) to determine their ability to induce chondrogenesis (process by which cartilage is developed).
Primary human mesenchymal stem cells (hMSCs) were purchased from Lonza (Walkersville, Md.) and expanded in Mesenchymal Stem Cell Growth Media (Lonza). Cells between passage 3 and 6 were used for the experiments.
Area of nodules in each well was normalized to the average of 3 DMSO treated wells on the same plate using Excel (Microsoft Inc.). The normalized averages (fold change over DMSO) of 2 or 3 replicate wells for each compound concentration were calculated. Due to solubility limitations of some of the compounds, curve fitting was incomplete leading to inaccurate EC50 determinations.
Using TGF-β3 as a positive control, the concentration of representative compounds required to induce 50% levels of chondrogenesis is reported. In addition, the maximum activity of each compound and the respective dose that each compound reached maximum chondrogenesis activity is reported.

[3] = system: IL-6 (THP-1 human monocyte cell line); test: IL-6 inhibition in LPS-stimulated THP-1 cells (HTRF); details: for EC50: IL-6 inhibition, LPS-stimulated THP-1 cells, HTRF; for inhibition at 10 µM: THP-1, read-out: percentage in parentheses beside EC50 >10 (IL-6 inhibition)
In short: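 THP-1 cells kept 24 h in 1% FBS medium, treated 2 h at 37 °C, then stimulated with 500 ng/mL LPS for another 22 h. IL-6 measured by HTRF as the 665/620 nm ratio; EC50 from a four-parameter fit normalized to DMSO controls.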

[4] = system: primary human fibroblasts derived from IPF patients (LL29 cells) treated with TGF-β1; test: Inhibition of the fibrotic process: αSMA staining in TGF-β1 treated LL29 fibroblasts; details: Fibroblast; for EC50: 96 h, LL29 cells, TGF-β1 20 ng/mL, 4 days, % αSMA positive cells; for inhibition at 10 µM: read-out: percent inhibition at 10 μM
In short: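 IPF-patient-derived LL29 lung fibroblasts in F12 with 1% FBS, stimulated with TGF-β1 alongside compound; TGF-β1 plus DMSO wells served as controls. After 4 days, nuclei stained with 1 μM SYTOX green for 30 min at room temperature, alongside αSMA staining.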

SW480 colon cancer cells = test: Cell viability assay (CellTiter-Blue), SW480 cells, four days; details: Homo sapiens; for EC50: 96 h, SW480 cell viability, four days, CellTiter-Blue; for inhibition at 10 µM: SW480, read-out: percent inhibition at 10 μM
In short: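 Fluorescence from resazurin reduced to resorufin by metabolically active cells was the read-out, taken after ~3 h with CellTiter-Blue.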

EC50 [1] [nM] | EC50 [2] [nM] | EC50 [3] [nM] | EC50 (SW480 colon cancer cells) [nM] | Compound | Emax [2] [%] | EC50 [4] [nM] | inhibition at 10 µM [3] [%] | inhibition at 10 µM [1] [%] | inhibition at 10 µM [4] [%] | inhibition at 10 µM (SW480 colon cancer cells) [%]
13 | 100 | 6140 | 1030 | CCC(=O)Nc1cncc(-c2ccc3[nH]nc(-c4cc5c(-c6cccc(F)c6)ccnc5[nH]4)c3c2)c1 [Compound 1, N-(5-(3-(4-(3-Fluorophenyl)-1H-pyrrolo[2,3-b]pyridin-2-yl)-1H-indazol-5-yl)pyridin-3-yl)propionamide] | 167 | 141 |  |  |  | 
1680 | 30 | 3970 | 561 | CCNCc1cncc(-c2ccc3[nH]nc(-c4cc5c(-c6cccc(F)c6)ccnc5[nH]4)c3c2)c1 [Compound 6, N-((5-(3-(4-(3-Fluorophenyl)-1H-pyrrolo[2,3-b]pyridin-2-yl)-1H-indazol-5-yl)pyridin-3-yl)methyl)ethanamine] | 59 | 1200 |  |  |  | 
1180 |  | > 10000 | 2920 | CN(C)Cc1cncc(-c2ccc3[nH]nc(-c4cc5c(-c6cccc(F)c6)ccnc5[nH]4)c3c2)c1 [Compound 13, 1-(5-(3-(4-(3-Fluorophenyl)-1H-pyrrolo[2,3-b]pyridin-2-yl)-1H-indazol-5-yl)pyridin-3-yl)-N,N-dimethylmethanamine] | 48 | 1190 | 55.3 |  |  | 
> 10000 |  | > 10000 | 1510 | Fc1ccc(-c2ccnc3[nH]c(-c4n[nH]c5ccc(-c6cncc(CN7CCCC7)c6)cc45)cc23)cc1 [Compound 42, 3-(4-(4-Fluorophenyl)-1H-pyrrolo[2,3-b]pyridin-2-yl)-5-(5-(pyrrolidin-1-ylmethyl)pyridin-3-yl)-1H-indazole] | 22 | 2930 | 40.2 | 14.8 |  | 
> 10000 | 2700 | > 10000 | > 10000 | Fc1ccc(-c2ccnc3[nH]c(-c4n[nH]c5ccc(-c6cncnc6)cc45)cc23)cc1 [Compound 55, 3-(4-(4-Fluorophenyl)-1H-pyrrolo[2,3-b]pyridin-2-yl)-5-(pyrimidin-5-yl)-1H-indazole] | 82 | > 10000 | 25.6 | 11.7 | 7.3 | 17.3
131 |  | > 10000 | 399 | Nc1cncc(-c2ccc3[nH]nc(-c4cc5c(-c6ccccc6F)ccnc5[nH]4)c3c2)c1 [Compound 59, 5-(3-(4-(2-Fluorophenyl)-1H-pyrrolo[2,3-b]pyridin-2-yl)-1H-indazol-5-yl) pyridin-3-amine] | 24 | 592 | 31.6 |  |  | 
> 10000 | 30 | > 10000 | > 10000 | Cc1ccncc1-c1ccc2[nH]nc(-c3cc4c(-c5ccccc5F)ccnc4[nH]3)c2c1 [Compound 61, 3-(4-(2-Fluorophenyl)-1H-pyrrolo[2,3-b]pyridin-2-yl)-5-(4-methylpyridin-3-yl)-1H-indazole] | 54 | 450 | 22.7 | 3.5 |  | 14.9
184 | 900 | 550 | > 10000 | CC(C)CC(=O)Nc1cncc(-c2ccc3[nH]nc(-c4cc5c(-c6cccnc6)ccnc5[nH]4)c3c2)c1 [Compound 86, 3-Methyl-N-(5-(3-(4-(pyridin-3-yl)-1H-pyrrolo[2,3-b]pyridin-2-yl)-1H-indazol-5-yl)pyridin-3-yl)butanamide] | 104 | > 10000 |  |  | 25.9 | 44.6
> 10000 |  | 648 | > 10000 | c1cncc(-c2ccc3[nH]nc(-c4cc5c(-c6cccnc6)ccnc5[nH]4)c3c2)c1 [Compound 88, 5-(Pyridin-3-yl)-3-(4-(pyridin-3-yl)-1H-pyrrolo[2,3-b]pyridin-2-yl)-1H-indazole] | 17 | > 10000 |  | 48.8 | 0 | 11.2
> 10000 |  | 561 | > 10000 | CCNCc1cncc(-c2ccc3[nH]nc(-c4cc5c(-c6cccnc6)ccnc5[nH]4)c3c2)c1 [Compound 90, N-((5-(3-(4-(Pyridin-3-yl)-1H-pyrrolo[2,3-b]pyridin-2-yl)-1H-indazol-5-yl)pyridin-3-yl)methyl)ethanamine] | 29 | > 10000 |  | 28.6 | 0 | 31.3
> 10000 |  | 409 | > 10000 | CC(C)Nc1cncc(-c2ccc3[nH]nc(-c4cc5c(-c6cccnc6)ccnc5[nH]4)c3c2)c1 [Compound 96, N-Isopropyl-5-(3-(4-(pyridin-3-yl)-1H-pyrrolo[2,3-b]pyridin-2-yl)-1H-indazol-5-yl)pyridin-3-amine] | 45 | > 10000 |  | 38.9 | 10 | 28.2
> 10000 | 30 | > 10000 | > 10000 | c1cncc(-c2ccnc3[nH]c(-c4n[nH]c5ccc(-c6cncc(CN7CCCCC7)c6)cc45)cc23)c1 [Compound 99, 5-(5-(Piperidin-1-ylmethyl)pyridin-3-yl)-3-(4-(pyridin-3-yl)-1H-pyrrolo[2,3-b]pyridin-2-yl)-1H-indazole] | 62 | > 10000 | 0 | 18.6 | 4 | 50.6
> 10000 |  | > 10000 | > 10000 | O=C(Nc1cncc(-c2ccc3[nH]nc(-c4cc5c(-c6cccnc6)ccnc5[nH]4)c3c2)c1)C1CCCCC1 [Compound 107, N-(5-(3-(4-(Pyridin-3-yl)-1H-pyrrolo[2,3-b]pyridin-2-yl)-1H-indazol-5-yl)pyridin-3-yl)cyclohexanecarboxamide] | 39 | > 10000 | 34.4 | 10.6 | 41.7 | 12
523 |  | 3340 | > 10000 | FC1(F)CCN(Cc2cncc(-c3ccc4[nH]nc(-c5cc6c(-c7cccnc7)ccnc6[nH]5)c4c3)c2)C1 [Compound 110, 5-(5-((3,3-Difluoropyrrolidin-1-yl)methyl)pyridin-3-yl)-3-(4-(pyridin-3-yl)-1H-pyrrolo[2,3-b]pyridin-2-yl)-1H-indazole] | 20 | 95 |  |  |  | 51.8
> 10000 |  | > 10000 | > 10000 | Cc1ccncc1-c1ccc2[nH]nc(-c3cc4c(-c5ccncc5)ccnc4[nH]3)c2c1 [Compound 117, 5-(4-Methylpyridin-3-yl)-3-(4-(pyridin-4-yl)-1H-pyrrolo[2,3-b]pyridin-2-yl)-1H-indazole] | 44 | > 10000 | 31.5 | 31.8 | 44.2 | 4.6
> 10000 |  | > 10000 | > 10000 | CC(C)(C)C(=O)Nc1cncc(-c2ccc3[nH]nc(-c4cc5c(-c6ccncc6)ccnc5[nH]4)c3c2)c1 [Compound 120, N-(5-(3-(4-(Pyridin-4-yl)-1H-pyrrolo[2,3-b]pyridin-2-yl)-1H-indazol-5-yl)pyridin-3-yl)pivalamide] | 44 | > 10000 | 35.6 | 36.6 | 12.8 | 10.7
> 10000 |  | > 10000 | > 10000 | c1csc(-c2ccnc3[nH]c(-c4n[nH]c5ccc(-c6cnccn6)cc45)cc23)c1 [Compound 712, 5-(Pyrazin-2-yl)-3-(4-(thiophen-2-yl)-1H-pyrrolo[2,3-b]pyridin-2-yl)-1H-indazole] |  | 1400 | 36.3 | 5.6 |  | 13.9
